In US11179356B2, “Methods and compositions to modulate the gut microbiota and to manage weight” (Xeno Biosciences Inc., priority 2015, dated 2021):

What was measured:
[1] = over one year; cited from earlier work
[2] = test system: gut microbiota; assay: Oral gavage of non-formulated peroxide, 16S rRNA sequencing of fecal samples (Example 7); format: in vivo, Sprague Dawley lean rats; settings: rats, oral gavage three times daily in acidified water, total dose 600 mg/kg body weight, 3 days
Procedure: (§1) 6-7 week old Sprague Dawley lean rats were orally gavaged three times daily either with carbamide peroxide dissolved in acidified water as the treatment arm (total dose=600 mg/kg body weight) or with acidified water alone as the control arm (12 […] per arm) for 3 days. Gavage solution was prepared immediately before oral gavaging was performed. Each rat was fed a normal chow diet throughout (Research Diets) and kept under 12 hr-12 hr light-dark cycle in its own metabolic cage. Fresh fecal samples were collected at day 0 (basal measurement, before dosing start) and at the end of day 3 (after the final dose) and immediately stored at −80 C. Later, 16S rRNA sequencing was performed to measure relative abundance of different taxa in the stool samples. Body weight and food intake were measured daily.

[3] = Oral gavage of non-formulated peroxide, body weight and food intake (Example 7); format: in vivo, Sprague Dawley lean rats; settings: rats, oral gavage three times daily in acidified water, total dose 600 mg/kg body weight, 3 days
Procedure: as §1

SMILES	weight loss [1]	change in gut microbiota composition between Day 0 and Day 3, treatment arm and control arm [2]	body weight, treatment versus control arm [3]	food intake, treatment versus control arm [3]
CC(C)(N)Cc1ccccc1 [Phentermine]	4-5%	–	–	–
NC(N)=O.OO [carbamide peroxide]	–	No significant change	no significant differences	no significant differences
CCCCCCCCCCC[C@@H](C[C@@H]1OC(=O)[C@H]1CCCCCC)OC(=O)[C@H](CC(C)C)NC=O [Xenical]	3-4%	–	–	–
